Reference: ChEMBL document CHEMBL6096728, “Simultaneous Induction of Immunogenic Pyroptosis and PD-L1 Downregulation by One Single Photosensitizer for Synergistic Cancer Photoimmunotherapy” (J Med Chem, 2025)
Active and inactive are the calls of the source. The calls are words filed in the database; no cut-off is given here.

Assays:
MDA-MB-231 [1] = test: Induction of cell death in human MDA-MB-231 cells assessed as increase in red fluorescence at 0.5 uM incubated for 24 hrs followed by light irradiation of 20 mW.cm/2 at 400 to 700nm for 10 mins by Calcein-AM/PI staining based analysis; format: functional
4T1 [2] = test: Antitumor immunity against mouse 4T1 cells implanted in BALB/c mouse model assessed as fold increase in CD8+ T cells in spleen at 25 mg/kg, iv measured after 14 days under light irradiation of 300 mW.cm/2 at 400 to 700nm measured after 5 mins […]; format: functional; conditions: time 14 day
[3] = Toxicity in BALB/c mouse assessed as change in body weight at 25 mg/kg, iv measured after 14 days under light irradiation of 300 mW.cm/2 at 400 to 700nm measured after 5 mins; format: organism-based; conditions: in vivo, 336 h, time 14 day
MDA-MB-231 [4] = test: Inhibition of human MDA-MB-231 cells at 0.1 uM under light irradiation of 20 mW.cm/2 at 400 to 700nm measured after 14 days by crystal violet staining based assay; format: functional, cell-based; conditions: time 14.0 day
4T1 [5] = test: Antitumor immunity against mouse 4T1 cells implanted in BALB/c mouse model assessed as increase of CD4+ T cells in lymph node at 25 mg/kg, iv measured after 14 days under light irradiation of 300 mW.cm/2 at 400 to 700nm measured after 5 mins […]; format: functional, organism-based; conditions: time 14.0 day
MDA-MB-231 [6] = test: Induction of pyroptosis in human MDA-MB-231 cells assessed as upregulation of GSDME-N expression level at 0.1 to 0.5 uM incubated with compound for 12 hrs under dark condition by Western blot analysis; format: functional, cell-based; conditions: dose 0.1-0.5 µM
4T1 [7] = test: Antitumor immunity against mouse 4T1 cells implanted in BALB/c mouse model assessed as fold increase in CD4+ T cells in spleen at 25 mg/kg, iv measured after 14 days under light irradiation of 300 mW.cm/2 at 400 to 700nm measured after 5 mins […]; format: functional; conditions: time 14 day
[8] = Aqueous solubility of the compound by UV-vis absorption analysis; format: physicochemical; conditions: water
4T1 [9] = test: Antitumor immunity against mouse 4T1 cells implanted in BALB/c mouse model assessed as increase in IFN-gamma secretion in tumors at 25 mg/kg, iv measured after 14 days under light irradiation of 300 mW.cm/2 at 400 to 700nm measured after 5 mins by ELISA method; format: functional, organism-based; conditions: time 14.0 day
[10] = Toxicity in BALB/c mouse assessed as effect on kidney at 25 mg/kg, iv measured after 14 days under light irradiation of 300 mW.cm/2 at 400 to 700nm measured after 5 mins; format: organism-based; conditions: in vivo, 336 h, 0.7 µM, time 14 day
4T1 [11] = test: Antitumor immunity against mouse 4T1 cells implanted in BALB/c mouse model assessed as increase in proportion of tumor infiltrating CD4+ T cells at 25 mg/kg, iv measured after 14 days under light irradiation of 300 mW.cm/2 at 400 to 700nm measured after 5 mins by immunofluorescence analysis; format: functional, organism-based; conditions: time 14.0 day
4T1 [12] = test: (§1) Induction of intracellular ROS generation in mouse 4T1 cells assessed as increase in fluorescence intensity at 0.1 uM preincubated for 2 hrs followed by compound washout further incubated with DCFH-DA probe for 30 mins under light irradiation of 20 mW.cm/2 at 400 to 700nm measured after 10 mins in presence of tiron by flow cytometry analysis; format: functional, cell-based
MDA-MB-231 [13] = test: Induction of pyroptosis in human MDA-MB-231 cells assessed as cell swelling at 0.5 uM preincubated with compound for 4 hrs followed by light irradiation of 20 mW.cm/2 at 400 to 700nm for 10 mins by confocal fluorescence microscopy analysis; format: functional, cell-based
4T1 [14] = test: Antitumor immunity against mouse 4T1 cells implanted in BALB/c mouse model assessed as increase in IL-6 secretion in tumors at 25 mg/kg, iv measured after 14 days under light irradiation of 300 mW.cm/2 at 400 to 700nm measured after 5 mins by ELISA method; format: functional, organism-based; conditions: time 14.0 day
MDA-MB-231 [15] = test: Photocytotoxicity in human MDA-MB-231 cells assessed as reduction in 3D multicellular spheroids diameter at 0.5 to 1 uM incubated for 24 hrs under light irradiation of 50 mW.cm/2 at 400 to 700nm measured after 10 mins in normoxia condition; format: functional, cell-based; conditions: dose 0.5-1 µM
4T1 [16] = test: Antitumor immunity against mouse 4T1 cells implanted in BALB/c mouse model assessed as increase of CD8+ T cells in lymph node at 25 mg/kg, iv measured after 14 days under light irradiation of 300 mW.cm/2 at 400 to 700nm measured after 5 mins […]; format: functional, organism-based; conditions: time 14.0 day
4T1 [17] = test: Downregulation of PD-L1 expression level in mouse 4T1 cells at 0.1 to 0.5 uM incubated for 24 hrs under light irradiation of 20 mW.cm/2 at 400 to 700nm for 10 mins by Western blot analysis; format: functional, cell-based; conditions: dose 0.1-0.5 µM
4T1 [18] = test: as §1, with “NaN3” for “tiron”; format: functional, cell-based
MDA-MB-468 = test: Downregulation of PD-L1 expression level in human MDA-MB-468 cells at 0.1 to 0.5 uM incubated for 24 hrs under light irradiation of 20 mW.cm/2 at 400 to 700nm for 10 mins by Western blot analysis; format: functional, cell-based; conditions: dose 0.1-0.5 µM
[19] = Toxicity in BALB/c mouse assessed as effect on tumor at 25 mg/kg, iv measured after 14 days by H and E staining based analysis; format: organism-based; conditions: in vivo, 336 h, time 14 day
[20] = Drug accumulation in BALB/c mouse tumor implanted with mouse 4T1 cells assessed as increase in fluorescence intensity at 25 mg/kg, iv measured after 12 hrs by imaging based analysis; format: ADME, organism-based, Neoplasm; conditions: in vivo
[21] = Toxicity in BALB/c mouse assessed as effect on heart at 25 mg/kg, iv measured after 14 days under light irradiation of 300 mW.cm/2 at 400 to 700nm measured after 5 mins by H and E staining based analysis; format: organism-based; conditions: in vivo, 336 h, 0.7 µM, time 14 day
MDA-MB-231 [22] = test: Downregulation of PD-L1 expression level in human MDA-MB-231 cells at 0.1 to 0.5 uM incubated for 24 hrs under light irradiation of 20 mW.cm/2 at 400 to 700nm for 10 mins by Western blot analysis; format: functional, cell-based; conditions: dose 0.1-0.5 µM
[23] = Toxicity in BALB/c mouse assessed as effect on liver at 25 mg/kg, iv measured after 14 days under light irradiation of 300 mW.cm/2 at 400 to 700nm measured after 5 mins; format: organism-based; conditions: in vivo, 336 h, 0.7 µM, time 14 day
[24] = Toxicity in BALB/c mouse assessed as effect on kidney at 25 mg/kg, iv measured after 14 days by H and E staining based analysis; format: organism-based; conditions: in vivo, 336 h, time 14 day
[25] = Induction of ROS generation under LED light irradiation assessed as increase in superoxide anion radical level by measuring increase in DHR123 fluorescence at 5 uM measured for 7 mins by fluorescence based analysis; format: functional
[26] = Induction of singlet oxygen production in acetonitrile solution assessed as decrease in ABDA absorption under LED light irradiation at 20 mW.cm/2 measured upto 30 mins by microplate reader analysis; format: functional

solubility [8]: > 10 mM | Drug uptake [20]: Active
Structure (SMILES): O=c1cc2sc3cc(N4CCNCC4)ccc3nc-2c2ccccc12
Activity (MDA-MB-231 [1]): Active | fold change (FC) (4T1 [2]): 6.3 | Activity [3]: Non-toxic | inhibition (MDA-MB-231 [4]): Active | Activity (4T1 [5]): Active | Activity (MDA-MB-231 [6]): Active; Compound Showed Negligible Changes | fold change (FC) (4T1 [7]): 6.8 | Activity (4T1 [9]): Active | Activity [10]: Non-toxic | Activity (4T1 [11]): Active | Activity (4T1 [12]): inactive | Activity (MDA-MB-231 [13]): Active | Activity (4T1 [14]): Active | Activity (MDA-MB-231 [15]): Active | Activity (4T1 [16]): Active | Activity (4T1 [17]): Active | Activity (4T1 [18]): inactive | Activity (MDA-MB-468): Active | Activity [19]: Toxic | Activity [21]: Non-toxic | Activity (MDA-MB-231 [22]): Active | Activity [23]: Non-toxic | Activity [24]: Non-toxic | Activity [25]: Active | Activity [26]: Active
